According to the supplement of paper PMC13207355:

Experiments:
Conditions in all cases: exposure time: 72 h
FT3469 [1] = normal neural stem cell line; experiment: phenotypic distance (Euclidean, principal components) from DMSO controls (arbitrary units); higher = stronger morphological change
E28 [2] = patient-derived glioblastoma stem cells of classical subtype; experiment: as above
E34 [3] = patient-derived glioblastoma stem cells of proneural subtype; experiment: as above
E31 [4] = patient-derived glioblastoma stem cells of proneural subtype; experiment: as above
E21 [5] = patient-derived glioblastoma stem cells of mesenchymal subtype; experiment: as above
E13 [6] = patient-derived glioblastoma stem cells of classical subtype; experiment: as above
E57 [7] = patient-derived glioblastoma stem cells of mesenchymal subtype; experiment: as above
FT3469 [8] = experiment: surviving fraction (nuclei count normalised to DMSO); higher = more cells surviving (less toxic)
E28 [9] = experiment: as above
E34 [10] = experiment: as above
E31 [11] = experiment: as above
E21 [12] = experiment: as above
E13 [13] = experiment: as above
E57 [14] = experiment: as above
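For phenotypic distance (Euclidean, principal components) from DMSO controls in this document: cell Painting imaging in 384-well plates, CellProfiler features reduced to at least 20 principal components, Euclidean distance versus same-plate DMSO vehicle wells (0.1% v/v), median over six images per well.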
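For surviving fraction (nuclei count normalised to DMSO) in this document: nuclei counted by high-content imaging of Hoechst-stained cells in laminin-coated 384-well plates, relative to 0.1% DMSO vehicle wells, with staurosporine as cell-death control.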

Cc1ccc2c(c1)C1(CCN(CCc3nc(-c4ccccc4)oc3C)CC1)OC(=O)N2
phenotypic distance (FT3469 [1]; 4.1 nM): 1.5 | phenotypic distance (FT3469 [1]; 12.3 nM): 0.887 | phenotypic distance (FT3469 [1]; 37 nM): 0.645 | phenotypic distance (FT3469 [1]; 111.1 nM): 1.16 | phenotypic distance (FT3469 [1]; 333.3 nM): 0.543 | phenotypic distance (FT3469 [1]; 1000 nM): 0.575 | phenotypic distance (FT3469 [1]; 3000 nM): 0.661 | phenotypic distance (E28 [2]; 4.1 nM): 0.761 | phenotypic distance (E28 [2]; 12.3 nM): 1.33 | phenotypic distance (E28 [2]; 37 nM): 0.46 | phenotypic distance (E28 [2]; 111.1 nM): 0.636 | phenotypic distance (E28 [2]; 333.3 nM): 0.695 | phenotypic distance (E28 [2]; 1000 nM): 0.667 | phenotypic distance (E28 [2]; 3000 nM): 0.74 | phenotypic distance (E34 [3]; 4.1 nM): 0.895 | phenotypic distance (E34 [3]; 12.3 nM): 2 | phenotypic distance (E34 [3]; 37 nM): 0.587 | phenotypic distance (E34 [3]; 111.1 nM): 0.749 | phenotypic distance (E34 [3]; 333.3 nM): 0.998 | phenotypic distance (E34 [3]; 1000 nM): 0.765 | phenotypic distance (E34 [3]; 3000 nM): 0.942 | phenotypic distance (E31 [4]; 4.1 nM): 1.24 | phenotypic distance (E31 [4]; 12.3 nM): 0.61 | phenotypic distance (E31 [4]; 37 nM): 0.972 | phenotypic distance (E31 [4]; 111.1 nM): 0.485 | phenotypic distance (E31 [4]; 333.3 nM): 0.605 | phenotypic distance (E31 [4]; 1000 nM): 0.491 | phenotypic distance (E31 [4]; 3000 nM): 0.687 | phenotypic distance (E21 [5]; 4.1 nM): 1.42 | phenotypic distance (E21 [5]; 12.3 nM): 0.605 | phenotypic distance (E21 [5]; 37 nM): 4.58 | phenotypic distance (E21 [5]; 111.1 nM): 0.716 | phenotypic distance (E21 [5]; 333.3 nM): 0.433 | phenotypic distance (E21 [5]; 1000 nM): 0.642 | phenotypic distance (E21 [5]; 3000 nM): 1.29 | phenotypic distance (E13 [6]; 4.1 nM): 2.72 | phenotypic distance (E13 [6]; 12.3 nM): 2.97 | phenotypic distance (E13 [6]; 37 nM): 1.42 | phenotypic distance (E13 [6]; 111.1 nM): 0.52 | phenotypic distance (E13 [6]; 333.3 nM): 0.547 | phenotypic distance (E13 [6]; 1000 nM): 0.819 | phenotypic distance (E13 [6]; 3000 nM): 0.711 | phenotypic distance (E57 [7]; 4.1 nM): 0.955 | phenotypic distance (E57 [7]; 12.3 nM): 0.495 | phenotypic distance (E57 [7]; 37 nM): 0.64 | phenotypic distance (E57 [7]; 111.1 nM): 0.513 | phenotypic distance (E57 [7]; 333.3 nM): 0.49 | phenotypic distance (E57 [7]; 1000 nM): 0.453 | phenotypic distance (E57 [7]; 3000 nM): 0.766 | surviving fraction (FT3469 [8]; 4.1 nM): 0.873 | surviving fraction (FT3469 [8]; 12.3 nM): 1.15 | surviving fraction (FT3469 [8]; 37 nM): 1.04 | surviving fraction (FT3469 [8]; 111.1 nM): 0.795 | surviving fraction (FT3469 [8]; 333.3 nM): 1.1 | surviving fraction (FT3469 [8]; 1000 nM): 1.03 | surviving fraction (FT3469 [8]; 3000 nM): 0.991 | surviving fraction (E28 [9]; 4.1 nM): 1.07 | surviving fraction (E28 [9]; 12.3 nM): 0.977 | surviving fraction (E28 [9]; 37 nM): 1.11 | surviving fraction (E28 [9]; 111.1 nM): 0.99 | surviving fraction (E28 [9]; 333.3 nM): 1.11 | surviving fraction (E28 [9]; 1000 nM): 0.938 | surviving fraction (E28 [9]; 3000 nM): 1.1 | surviving fraction (E34 [10]; 4.1 nM): 0.851 | surviving fraction (E34 [10]; 12.3 nM): 1.03 | surviving fraction (E34 [10]; 37 nM): 0.875 | surviving fraction (E34 [10]; 111.1 nM): 0.878 | surviving fraction (E34 [10]; 333.3 nM): 1.17 | surviving fraction (E34 [10]; 1000 nM): 1.07 | surviving fraction (E34 [10]; 3000 nM): 1.05 | surviving fraction (E31 [11]; 4.1 nM): 1.04 | surviving fraction (E31 [11]; 12.3 nM): 0.99 | surviving fraction (E31 [11]; 37 nM): 1.01 | surviving fraction (E31 [11]; 111.1 nM): 0.979 | surviving fraction (E31 [11]; 333.3 nM): 1.04 | surviving fraction (E31 [11]; 1000 nM): 0.996 | surviving fraction (E31 [11]; 3000 nM): 0.955 | surviving fraction (E21 [12]; 4.1 nM): 0.932 | surviving fraction (E21 [12]; 12.3 nM): 0.961 | surviving fraction (E21 [12]; 37 nM): 0.956 | surviving fraction (E21 [12]; 111.1 nM): 1.07 | surviving fraction (E21 [12]; 333.3 nM): 0.988 | surviving fraction (E21 [12]; 1000 nM): 0.923 | surviving fraction (E21 [12]; 3000 nM): 0.891 | surviving fraction (E13 [13]; 4.1 nM): 0.988 | surviving fraction (E13 [13]; 12.3 nM): 1.09 | surviving fraction (E13 [13]; 37 nM): 1.12 | surviving fraction (E13 [13]; 111.1 nM): 1.07 | surviving fraction (E13 [13]; 333.3 nM): 1.12 | surviving fraction (E13 [13]; 1000 nM): 1.11 | surviving fraction (E13 [13]; 3000 nM): 0.943 | surviving fraction (E57 [14]; 4.1 nM): 1.05 | surviving fraction (E57 [14]; 12.3 nM): 1.03 | surviving fraction (E57 [14]; 37 nM): 0.923 | surviving fraction (E57 [14]; 111.1 nM): 1.01 | surviving fraction (E57 [14]; 333.3 nM): 1.04 | surviving fraction (E57 [14]; 1000 nM): 0.967 | surviving fraction (E57 [14]; 3000 nM): 1.02

Nc1ccc(-c2ccc3ncc4ccc(=O)n(-c5cccc(C(F)(F)F)c5)c4c3c2)cn1 [Torin2]
phenotypic distance (FT3469 [1]; 4.1 nM): 1.78 | phenotypic distance (FT3469 [1]; 12.3 nM): 2 | phenotypic distance (FT3469 [1]; 37 nM): 2.85 | phenotypic distance (FT3469 [1]; 111.1 nM): 2.71 | phenotypic distance (FT3469 [1]; 333.3 nM): 3.04 | phenotypic distance (FT3469 [1]; 1000 nM): 2.81 | phenotypic distance (FT3469 [1]; 3000 nM): 3.65 | phenotypic distance (E28 [2]; 4.1 nM): 1.23 | phenotypic distance (E28 [2]; 12.3 nM): 2.35 | phenotypic distance (E28 [2]; 37 nM): 2.78 | phenotypic distance (E28 [2]; 111.1 nM): 3.06 | phenotypic distance (E28 [2]; 333.3 nM): 2.87 | phenotypic distance (E28 [2]; 1000 nM): 3.67 | phenotypic distance (E28 [2]; 3000 nM): 3.52 | phenotypic distance (E34 [3]; 4.1 nM): 1.56 | phenotypic distance (E34 [3]; 12.3 nM): 2.42 | phenotypic distance (E34 [3]; 37 nM): 2.76 | phenotypic distance (E34 [3]; 111.1 nM): 3.31 | phenotypic distance (E34 [3]; 333.3 nM): 3.09 | phenotypic distance (E34 [3]; 1000 nM): 2.85 | phenotypic distance (E34 [3]; 3000 nM): 3.68 | phenotypic distance (E31 [4]; 4.1 nM): 1.91 | phenotypic distance (E31 [4]; 12.3 nM): 2.08 | phenotypic distance (E31 [4]; 37 nM): 3.12 | phenotypic distance (E31 [4]; 111.1 nM): 4.26 | phenotypic distance (E31 [4]; 333.3 nM): 5.33 | phenotypic distance (E31 [4]; 1000 nM): 5.33 | phenotypic distance (E31 [4]; 3000 nM): 6.15 | phenotypic distance (E21 [5]; 4.1 nM): 1.71 | phenotypic distance (E21 [5]; 12.3 nM): 2.07 | phenotypic distance (E21 [5]; 37 nM): 2.44 | phenotypic distance (E21 [5]; 111.1 nM): 3.36 | phenotypic distance (E21 [5]; 333.3 nM): 6.2 | phenotypic distance (E21 [5]; 1000 nM): 4.67 | phenotypic distance (E21 [5]; 3000 nM): 5.09 | phenotypic distance (E13 [6]; 4.1 nM): 1.33 | phenotypic distance (E13 [6]; 12.3 nM): 2.1 | phenotypic distance (E13 [6]; 37 nM): 2.69 | phenotypic distance (E13 [6]; 111.1 nM): 3.25 | phenotypic distance (E13 [6]; 333.3 nM): 4.2 | phenotypic distance (E13 [6]; 1000 nM): 4.27 | phenotypic distance (E13 [6]; 3000 nM): 4.72 | phenotypic distance (E57 [7]; 4.1 nM): 1.19 | phenotypic distance (E57 [7]; 12.3 nM): 1.65 | phenotypic distance (E57 [7]; 37 nM): 2.17 | phenotypic distance (E57 [7]; 111.1 nM): 3.47 | phenotypic distance (E57 [7]; 333.3 nM): 4.27 | phenotypic distance (E57 [7]; 1000 nM): 5.35 | phenotypic distance (E57 [7]; 3000 nM): 8.06 | surviving fraction (FT3469 [8]; 4.1 nM): 0.978 | surviving fraction (FT3469 [8]; 12.3 nM): 0.925 | surviving fraction (FT3469 [8]; 37 nM): 0.73 | surviving fraction (FT3469 [8]; 111.1 nM): 0.685 | surviving fraction (FT3469 [8]; 333.3 nM): 0.769 | surviving fraction (FT3469 [8]; 1000 nM): 0.685 | surviving fraction (FT3469 [8]; 3000 nM): 0.527 | surviving fraction (E28 [9]; 4.1 nM): 0.829 | surviving fraction (E28 [9]; 12.3 nM): 0.687 | surviving fraction (E28 [9]; 37 nM): 0.705 | surviving fraction (E28 [9]; 111.1 nM): 0.526 | surviving fraction (E28 [9]; 333.3 nM): 0.534 | surviving fraction (E28 [9]; 1000 nM): 0.417 | surviving fraction (E28 [9]; 3000 nM): 0.324 | surviving fraction (E34 [10]; 4.1 nM): 0.986 | surviving fraction (E34 [10]; 12.3 nM): 0.84 | surviving fraction (E34 [10]; 37 nM): 0.809 | surviving fraction (E34 [10]; 111.1 nM): 0.796 | surviving fraction (E34 [10]; 333.3 nM): 0.623 | surviving fraction (E34 [10]; 1000 nM): 0.471 | surviving fraction (E34 [10]; 3000 nM): 0.424 | surviving fraction (E31 [11]; 4.1 nM): 0.743 | surviving fraction (E31 [11]; 12.3 nM): 0.669 | surviving fraction (E31 [11]; 37 nM): 0.612 | surviving fraction (E31 [11]; 111.1 nM): 0.386 | surviving fraction (E31 [11]; 333.3 nM): 0.26 | surviving fraction (E31 [11]; 1000 nM): 0.234 | surviving fraction (E31 [11]; 3000 nM): 0.102 | surviving fraction (E21 [12]; 4.1 nM): 0.939 | surviving fraction (E21 [12]; 12.3 nM): 0.836 | surviving fraction (E21 [12]; 37 nM): 0.924 | surviving fraction (E21 [12]; 111.1 nM): 0.595 | surviving fraction (E21 [12]; 333.3 nM): 0.326 | surviving fraction (E21 [12]; 1000 nM): 0.31 | surviving fraction (E21 [12]; 3000 nM): 0.252 | surviving fraction (E13 [13]; 4.1 nM): 0.816 | surviving fraction (E13 [13]; 12.3 nM): 0.728 | surviving fraction (E13 [13]; 37 nM): 0.628 | surviving fraction (E13 [13]; 111.1 nM): 0.537 | surviving fraction (E13 [13]; 333.3 nM): 0.467 | surviving fraction (E13 [13]; 1000 nM): 0.434 | surviving fraction (E13 [13]; 3000 nM): 0.387 | surviving fraction (E57 [14]; 4.1 nM): 0.892 | surviving fraction (E57 [14]; 12.3 nM): 0.74 | surviving fraction (E57 [14]; 37 nM): 0.659 | surviving fraction (E57 [14]; 111.1 nM): 0.548 | surviving fraction (E57 [14]; 333.3 nM): 0.424 | surviving fraction (E57 [14]; 1000 nM): 0.302 | surviving fraction (E57 [14]; 3000 nM): 0.148
